Laboratory results as given in patent publication US12466821B2 (Novartis AG, priority 2018, dated 2025).

Legend:
[1] = biological target: human HSV DNA polymerase UL30 (Human herpesvirus 1 (strain 17) (HHV-1) (Human herpes simplex virus 1), UniProt P04293); experiment: HSV polymerase biochemical assay (molecular beacon-based)
Procedure, shortened: (§1)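 Readout was beacon fluorescence (ex 480, em 535 nm), used to derive IC50. Each dNTP was at 1.25 uM, with 200 nM primer and 100 nM beacon, after a 30-min RT inhibitor preincubation. Enzyme was 625 pM for HSV UL30 (20 min RT reaction) or 100 pM for CMV UL54 (60 min RT), both sf9-expressed MBP fusions, in pH 7.5 Tris buffer with MgCl2.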

[2] = tested on: Luciferase-encoding HCMV, AD169 strain; experiment: CMV Luciferase assay (cellular herpesvirus replication); format: cell-based; conditions: Human betaherpesvirus 5, AD169, read-out: CMV-Luc Cellular EC50
Procedure, shortened: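 Neonatal human dermal fibroblasts were pretreated 1 h with compound (final 0.0159–50 μM or 0.00318–10 μM, 0.5% DMSO), then infected at MOI 1 with AD169 carrying pp28-promoter luciferase. After 72 h at 37 °C, Renilla-Glo luminescence normalized to no-virus and virus-only controls; EC50 by 4-parameter logistic model.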

[3] = biological target: human CMV DNA polymerase UL54 (Human cytomegalovirus (strain AD169) (HHV-5) (Human herpesvirus 5), UniProt P08546); experiment: CMV polymerase biochemical assay (molecular beacon-based)
Procedure, shortened: as §1

Row | Structure (SMILES) | IC50 [1] | EC50 [2] | IC50 [3]
1 | CN(CCN1CCn2c(c(C#CCO)cc(C(=O)NCc3ccc(Cl)cc3)c2=O)C1=O)S(C)(=O)=O [Example 155, N-(4-chlorobenzyl)-9-(3-hydroxyprop-1-yn-1-yl)-2-(2-(N-methylmethylsulfonamido)ethyl)-1,6-dioxo-1,3,4,6-tetrahydro-2H-pyrido[1,2-a]pyrazine-7-carboxamide] | 1950 nM | 37200 nM | 201 nM
2 | CS(=O)(=O)CCCN1CCn2c(c(C#CCO)cc(C(=O)NCc3ccc(Cl)cc3)c2=O)C1=O [Example 156] | 2110 nM | 50000 nM | 913 nM
3 | CN(CCN1CCn2c(c(CCCO)cc(C(=O)NCc3ccc(Cl)cc3)c2=O)C1=O)S(C)(=O)=O [Example 157, N-(4-chlorobenzyl)-9-(3-hydroxypropyl)-2-(2-(N-methylmethylsulfonamido)ethyl)-1,6-dioxo-1,3,4,6-tetrahydro-2H-pyrido[1,2-a]pyrazine-7-carboxamide] | 1800 nM | 7720 nM | 223 nM
4 | CS(=O)(=O)CCCN1CCn2c(c(N3CCCC3)cc(C(=O)NCc3ccc(Cl)cc3)c2=O)C1=O [Example 158, N-(4-chlorobenzyl)-2-(3-(methylsulfonyl)propyl)-1,6-dioxo-9-(pyrrolidin-1-yl)-1,3,4,6-tetrahydro-2H-pyrido[1,2-a]pyrazine-7-carboxamide] | 4090 nM | 13300 nM | 370 nM
5 | Cc1nc(-c2cc(C(=O)NCc3ccc(Cl)cc3)c(=O)n3c2C(=O)N(CCS(C)(=O)=O)CC3)no1 [Example 159, N-(4-chlorobenzyl)-9-(5-methyl-1,2,4-oxadiazol-3-yl)-2-(2-(methylsulfonyl)ethyl)-1,6-dioxo-1,3,4,6-tetrahydro-2H-pyrido[1,2-a]pyrazine-7-carboxamide] | 5660 nM | 26600 nM | 1780 nM
6 | N#Cc1ccc(CNC(=O)c2cc(F)c3n(c2=O)CCN(CC2(S(=O)(=O)C4CC4)CC2)C3=O)cc1 [Example 161] | 57.1 nM | 59.9 nM | 1.5 nM
7 | N#Cc1ccc(CNC(=O)c2cc(F)c3n(c2=O)CCN(CC2(S(=O)(=O)C4CC4)CC2)C3=O)cc1F [Example 162] | 79.6 nM | 41.3 nM | 1.9 nM
8 | O=C(NCc1ccc(Cl)cc1)c1cc(F)c2n(c1=O)CCN(CCN1CCCS1(=O)=O)C2=O [Example 163] | 141 nM | 370 nM | 23.2 nM
9 | CS(=O)(=O)C1(CN2CCn3c(c(F)cc(C(=O)NCc4ccc(C#N)cc4)c3=O)C2=O)CC1 [Example 164] | 305 nM | 249 nM | 13 nM
10 | CN(C1(CN2CCn3c(c(F)cc(C(=O)NCc4ccc(Cl)cc4)c3=O)C2=O)CC1)S(C)(=O)=O [Example 166] | 7700 nM | 10000 nM | 173 nM
11 | COC1(CN2CCn3c(ccc(C(=O)NCc4ccc(Cl)cc4)c3=O)C2=O)CC1 [Example 171, N-(4-chlorobenzyl)-2-((1-methoxycyclopropyl)methyl)-1,6-dioxo-1,3,4,6-tetrahydro-2H-pyrido[1,2-a]pyrazine-7-carboxamide] | 2800 nM | 637 nM | 72.9 nM
12 | CN(C)C(=O)OC1(CN2CCn3c(ccc(C(=O)NCc4ccc(Cl)cc4)c3=O)C2=O)CC1 [Example 172, 1-((7-((4-chlorobenzyl)carbamoyl)-1,6-dioxo-1,3,4,6-tetrahydro-2H-pyrido[1,2-a]pyrazin-2-yl)methyl)cyclopropyl dimethyl carbamate] | 71000 nM | 10000 nM | 2400 nM
13 | CS(=O)(=O)CC1(CN2CCn3c(ccc(C(=O)NCc4ccc(Cl)cc4)c3=O)C2=O)CC1 [Example 173, N-(4-chlorobenzyl)-2-((1-((methylsulfonyl)methyl)cyclopropyl)methyl)-1,6-dioxo-1,3,4,6-tetrahydro-2H-pyrido[1,2-a]pyrazine-7-carboxamide] | 232 nM | 364 nM | 20.6 nM
14 | CN(C1(CN2CCn3c(ccc(C(=O)NCc4ccc(Cl)cc4)c3=O)C2=O)CC1)S(C)(=O)=O [Example 174] | 2680 nM | 4200 nM | 64.3 nM
15 | CC(C)(C(=O)O)S(=O)(=O)C1(CN2CCn3c(ccc(C(=O)NCc4ccc(Cl)cc4)c3=O)C2=O)CC1 [Example 175, 2-((1-((7-((4-chlorobenzyl)carbamoyl)-1,6-dioxo-1,3,4,6-tetrahydro-2H-pyrido[1,2-a]pyrazin-2-yl)methyl)cyclopropyl)sulfonyl)-2-methylpropanoic acid] | 24.4 nM | 6050 nM | 0.8 nM
16 | CC(C)(C(=O)NS(C)(=O)=O)S(=O)(=O)C1(CN2CCn3c(ccc(C(=O)NCc4ccc(Cl)cc4)c3=O)C2=O)CC1 [Example 176, N-(4-chlorobenzyl)-2-((1-((2-methyl-1-(methylsulfonamido)-1-oxopropan-2-yl)sulfonyl)cyclopropyl)methyl)-1,6-dioxo-1,3,4,6-tetrahydro-2H-pyrido[1,2-a]pyrazine-7-carboxamide] | 61.9 nM | 7230 nM | 4.6 nM
17 | CC(C)(C(N)=O)S(=O)(=O)C1(CN2CCn3c(ccc(C(=O)NCc4ccc(Cl)cc4)c3=O)C2=O)CC1 [Example 177, 2-((1-((1-amino-2-methyl-1-oxopropan-2-yl)sulfonyl)cyclopropyl)methyl)-N-(4-chlorobenzyl)-1,6-dioxo-1,3,4,6-tetrahydro-2H-pyrido[1,2-a]pyrazine-7-carboxamide] | 18.1 nM | 12.4 nM | 1.5 nM
18 | CC(C)(c1ncno1)S(=O)(=O)C1(CN2CCn3c(ccc(C(=O)NCc4ccc(Cl)cc4)c3=O)C2=O)CC1 [Example 178, 2-((1-((2-(1,2,4-oxadiazol-5-yl)propan-2-yl)sulfonyl)cyclopropyl)methyl)-N-(4-chlorobenzyl)-1,6-dioxo-1,3,4,6-tetrahydro-2H-pyrido[1,2-a]pyrazine-7-carboxamide] | 10 nM | 43.4 nM | 0.3 nM
19 | CC(C)(c1ncno1)S(=O)(=O)C1(CN2CCn3c(ccc(C(=O)NCc4ccc(C#N)cc4)c3=O)C2=O)CC1 [Example 179] | 16.9 nM | 125 nM | 0.4 nM
20 | CC(C)(CO)S(=O)(=O)C1(CN2CCn3c(ccc(C(=O)NCc4ccc(Cl)cc4)c3=O)C2=O)CC1 [Example 180, N-(4-chlorobenzyl)-2-((1-((1-hydroxy-2-methylpropan-2-yl)sulfonyl)cyclopropyl)methyl)-1,6-dioxo-1,3,4,6-tetrahydro-2H-pyrido[1,2-a]pyrazine-7-carboxamide] | 22.7 nM | 6.2 nM | 0.2 nM
21 | CC(C)(CN)S(=O)(=O)C1(CN2CCn3c(ccc(C(=O)NCc4ccc(Cl)cc4)c3=O)C2=O)CC1 [Example 181, 2-((1-((1-amino-2-methylpropan-2-yl)sulfonyl)cyclopropyl)methyl)-N-(4-chlorobenzyl)-1,6-dioxo-1,3,4,6-tetrahydro-2H-pyrido[1,2-a]pyrazine-7-carboxamide] | 37.4 nM | 5.1 nM | 1.1 nM
22 | CC(C)(CO)S(=O)(=O)C1(CN2CCn3c(ccc(C(=O)NCc4ccc(Cl)nc4)c3=O)C2=O)CC1 [Example 182] | 38.6 nM | 48.3 nM | 2.7 nM
23 | CC(C)(CO)S(=O)(=O)C1(CN2CCn3c(ccc(C(=O)NCc4ccc(C#N)nc4)c3=O)C2=O)CC1 [Example 183] | 36.7 nM | 145 nM | 2.9 nM
